The values that follow are results of earlier work, collected in patent US20110150946A1 (priority 2008, published 2011).

The conditions of this data set: sublingual apomorphine 4 mg per patient.

For `CN1CCc2cccc3c2[C@H]1Cc1ccc(O)c(O)c1-3` [apomorphine, 5,6,6a,7-tetrahydro-6-methyl-4H-dibenzo[de, g]quinoline-10,11-diol], the nausea incidence was 14.1%.
